Test results from patent publication US8993626B2, “Methods of treatment using sterculic acid” (The United States of America, as represented by the …, priority 2010, dated 2015).

Columns and labels:
ARPE-19 cells [1] = assay: Fatty acids against 7KCh-mediated cell death (CCK8); assay type: cell-based; conditions: for CONC. (μM): lowest concentration required to maintain full cell viability against 7KCh: 12 μM 7KCh for 24 hr, tested 0.1, 0.5, 1, 5 and 10 μM
Method: FIGS. 12A-12C depict ARPE-19 cell viability in response to 12 μM 7KCh with or without 0.1-5 μM (A) sterculic acid and (B) stearic acid after 24 hr treatments. Error bars indicate the standard deviations. n=3-5. Two-tailed Student's t-test. (C) Representative images of changes in cell morphology in response to 12 μM 7KCh with or without 1 μM sterculic acid and stearic acid after 24 hr treatments.
(§1) ARPE-19 cells were seeded in 24-well plates with 1×10^5 cells per well and allowed to recover for 16-24 hr. Once confluency reached approximately 90%, the effect of the fatty acids against 7KCh-mediated cell death was examined 24 hr after incubation in serum-free medium with 12 μM 7KCh. Fatty acids were tested at 0.1, 0.5, 1, 5 and 10 μM concentrations. The effects of the fatty acids against 7KCh-mediated inflammation and ER stress were examined by incubating cells in 1 μM fatty acids with either 8 μM 7KCh (24 hr for quantitative real-time PCR (qRT-PCR), 24 and 48 hr for immunoblot), or 6 μM 7KCh for 48 hr (for ELISA). Three individual experiments were performed for each treatment with quadruplicate measurements performed for each experiment in 24-well plates.
The cell viability was determined by the dehydrogenase activity of the ARPE-19 cells using Cell Counting Kit-8 (CCK8, Dojindo, Gaithersburg, Md.) according to manufacturer's protocol.
The lowest effective concentrations of fatty acids that offset the 7KCh-mediated cell death were determined. […] Table 3 lists the lowest concentrations of these fatty acids required to maintain full cell viability against 12 μM 7KCh treatment. All unsaturated fatty acids protected against 7KCh-induced cell death. […] DHA, α-linolenic, and linoleic acid prevented 7KCh-mediated cell death at 5 μM but the rest of unsaturated fatty acids and dihydrosterculic acid required 10 μM to be protective.

ARPE-19 cells [2] = assay: qRT-PCR of inflammatory cytokines and ER stress markers, 7KCh-mediated inflammation; assay type: cell-based; conditions: for effect on 7KCh-mediated mRNA induction (inflammatory response): 1 μM fatty acid + 8 μM 7KCh, FIG. 13; for effect on 7KCh-mediated mRNA induction (inflammatory response) / VEGF mRNA expression / IL-6 mRNA expression / GRP78 mRNA expression / CHOP mRNA expression: 24 hr; for VEGF mRNA expression: FIG. 13A; for IL-6 mRNA expression: FIG. 13B; for GRP78 mRNA expression: FIG. 13C; for CHOP mRNA expression: FIG. 13D
Method: FIGS. 13A-13D depict mRNA expressions of (A) VEGF, (B) IL-6, (C) GRP78, and (D) CHOP in response to 8 μM 7KCh with or without 1 μM long-chain fatty acids. Error bars indicate the standard deviations. *p<0.05 comparing to 7KCh, n=3. Two-tailed Student's t-test.
(§2) FIGS. 14A-14D depict mRNA expressions of (A) VEGF, (B) IL-1b, (C) IL-6, and (D) IL-8 in response to 8 μM 7KCh, 1 μM sterculic acid, 1 μM stearic acid, or the combinations of 7KCh with either sterculic acid or stearic acid. Error bars indicate the standard deviations. *p<0.05 comparing to 7KCh, n=4. Two-tailed Student's t-test.
as §2, with “15A-15D” for “14A-14D”, “TNF-α,” for “VEGF,”, “TGF-β1,” for “IL-1b,”, “GRP78,” for “IL-6,”, “CHOP” for “IL-8”, “n=3-4.” for “n=4.”
as §1
(§3) The RNA was extracted using RNeasy Mini Kit (Qiagen, Valencia, Calif.). The reverse transcription was performed with reagents and kits from Invitrogen. Quantification of mRNA expression was performed using the Taqman gene expression assays and the following primers (VEGFa, Hs00173626_m1; IL-1β, Hs01555413_m1; IL-6, Hs00174131_m1; IL-8, Hs00174103_m1; IκBα, Hs00153283_m1; GRP78, Hs99999174_m1; CHOP, Hs01090850_m1; NOX2, Hs00166163_m1; NOX4, Hs01558199_m1; SCD, Hs00748952 s1; TNF-α, Hs00174128_m1; TGF-β1, Hs00998133_m1; GAPD, 4352934e). GAPD expression was used as an endogenous standard. All qRT-PCR experiments were measured in triplicates in an ABI 7500 Real-Time PCR Instrument (Applied Biosystems, Foster City, Calif.). The results of each treatment were normalized and presented in percentage relative to the vehicle-only control.

ARPE-19 cells [3] = assay: qRT-PCR of cytokines in TNF-α treated cells; assay type: cell-based; conditions: 24 hr
Method: FIGS. 17A-17D depict the mRNA expressions of (A) IL-1β, (B) IL-8, (C) IκBα, and (D) GRP78 in response to 2 ng/ml TNF-α, 1 μM sterculic acid, 1 μM stearic acid, or the combinations of TNF-α with either sterculic acid or stearic acid. n=3. Error bars indicate the standard deviations.
Tumor necrosis factor-alpha (TNF-α, Roche Diagnostics, Indianapolis, Ind.) was diluted in PBS to make 10 μg/ml stock solution and stored at −20° C. In order to test the anti-inflammation effect of fatty acids against TNF-α, ARPE-19 cells were treated with 2 ng/ml of TNF-α for 24 hr in serum-free medium with or without 1 μM fatty acids. The mRNA expressions of cytokines were then examined using qRT-PCR. Each treatment was performed three times with quadruplicate measurements in each experiment, in 24-well plates.
as §3

ARPE19 cells [4] = assay: CellTiter-Glo luminescent cell viability assay, 15 μM 7KCh-induced cytotoxicity; assay type: cell-based, human; conditions: 1 μM fatty acid + 15 μM 7KCh, 24 hr, CellTiter-Glo
Method: Error bar: standard deviation, n=4.
CellTiter-Glo® Luminescent Cell Viability Assay is a homogeneous method of determining the number of viable cells in culture based on quantitation of the ATP (luminescent signal) present, an indicator of metabolically active cells.
The contents in a plate were mixed for 2 min on an orbital shaker to induce cell lysis.
5) The plate was allowed to incubate at room temperature for 10 min to stabilize luminescent signal.

ARPE19 cells [5] = assay: Phase-contrast images of cells after co-treatment with 15 μM 7KCh; assay type: cell-based, human; conditions: 1 μM fatty acid + 15 μM 7KCh, 24 hr
Excerpt: FIG. 8 depicts phase-contrast images of ARPE19 cells at 24 hr after sterculic acid co-treatment with 7KCh.

ARPE19 cells [6] = assay: Cell Counting Kit-8 viability assay, 15 μM 7KCh-induced cytotoxicity; conditions: 1 μM fatty acid + 15 μM 7KCh, 24 hr, CCK-8
Method: 4×10^4 cells were seeded onto wells of a 96 well plate. […] Cell viability was determined as celluar dehydrogenase activity and expressed as the percentage of compound treated cells relative to that of untreated controls. error bar: standard deviation, n=4.
The kit allows sensitive colorimetric assays for the determination of the number of viable cells in cell proliferation and cytotoxicity assays. The amount of the formazan dye generated by the activity of dehydrogenases in cells is directly proportional to the number of living cells.
1) Cells were cultivated in a 96 well cell plate (Costar#3599, Corning Incorp, Corning, N.Y.).
2) The cell suspension (40,000 cells/100 μL) were added to 100 μL culture media per well and stood for 15 min at room temperature and cultured at 37° C. in a humidified 5% CO2 atmosphere.
3) Approximately 19 hr after seeding, when the cells were fully confluent, the cells were treated with either DMSO or 1 μM fatty acid in 200 μL of serum free media and subsequently added with 15 μM 7KCh in HPBCD. Then, the plate was swirled for mixing. The cells were also treated with DMSO and HPBCD, which served as vehicle control. The final DMSO and HPBCD concentrations in the media were in the range of 0.1% and 0.0675%, respectively.
Cell viability was expressed as the percentage of compound treated cells relative to that of untreated controls. Prior to measure cell viability, the cells were imaged live by Nikon TE 2000-U inverted fluorescent microscope.

ARPE19 cells [7] = assay: 7-ketocholesterol-mediated cytotoxicity, 24-well CCK-8 viability and images; conditions: 24 hr
ARPE-19 cells [8] = assay: ELISA of secreted VEGF, IL-6, IL-8 in conditioned medium; assay type: cell-based; conditions: 1 μM + 6 μM 7KCh, 48 hr
Method: (§4) FIGS. 16A-16E depict the secreted protein levels of (A) VEGF, (B) IL-6, and (C) IL-8 were measure by ELISA 48 hr after treatment with 6 μM 7KCh, 1 μM sterculic acid, 1 μM stearic acid, or the combinations of 7KCh with either sterculic acid or stearic acid. Error bars indicate the standard deviations. *p<0.05 comparing to 7KCh, n=3. Two-tailed Student's t-test. The expressions of GRP78 and CHOP were shown by immunoblots (D) 24 hr or (E) 48 hr after treatment with 8 μM 7KCh, 1 μM sterculic acid, 1 μM stearic acid, or the combinations of 7KCh with either sterculic acid or stearic acid.
as §1
The levels of secreted VEGF, IL-6, IL-8, and TNF-α in conditioned medium of ARPE-19 cell cultures were measured 48 hr after treatments of 6 μM 7KCh and 1 μM fatty acids using the Quantkine ELISA kits from R&D systems (Minneapolis, Minn.). The protein levels were measured in triplicates. The ELISA results were quantified using an Envision multilable plate reader (PerkinElmer, Covina, Calif.) and presented in percentage relative to the vehicle-only control.

ARPE-19 cells [9] = assay: Immunoblots of CHOP and GRP78; assay type: cell-based; conditions: 1 μM + 8 μM 7KCh, 24 hr
Method: as §4, §1
Lysis of ARPE-19 cells was performed using MPER buffer solution (Thermo Fisher Scientific) containing Complete Protease Inhibitor Cocktail (Roche Diagnostics). A total of 10 μg protein samples of the cell lysate were separated by SDS-PAGE on 10% Bis-Tris gels (Invitrogen). The gels were blotted on to nitrocellulose membranes (Invitrogen). The proteins were probed with primary antibodies for CHOP (1:1000 dilution), GRP78 (1:1000), or GAPDH (1:2000) at 4° C. overnight. The membranes were then further incubated with anti-rabbit IgG, HRP-linked antibodies (1:2000 dilution) at room temperature for 1 hr. […]

[10] = 8 μM 7KCh alone or with 1 μM fatty acid

CCCCC/C=C\C/C=C\C/C=C\C/C=C\CCCC(=O)O [arachidonic acid, Arachidonic acid]
CONC. (μM): lowest concentration required to maintain full cell viability against 7KCh (ARPE-19 cells [1]): 10 µM | effect on 7KCh-mediated mRNA induction (inflammatory response) (ARPE-19 cells [2]): either ineffective or enhanced

CC/C=C\C/C=C\C/C=C\CCCCCCCC(=O)O [α-linolenic acid]
CONC. (μM): lowest concentration required to maintain full cell viability against 7KCh (ARPE-19 cells [1]): 5 µM | VEGF mRNA expression (ARPE-19 cells [2]; [10]): essentially ineffective | IL-6 mRNA expression (ARPE-19 cells [2]; [10]): somewhat effective | GRP78 mRNA expression (ARPE-19 cells [2]; [10]): somewhat effective | CHOP mRNA expression (ARPE-19 cells [2]; [10]): somewhat effective

TNF-α
induction of GRP78 mRNA expression (ARPE-19 cells [3]; 2 ng/ml TNF-α alone or with 1 μM fatty acid, FIG. 17D): 2.5 fold | induction of IL-1β mRNA expression (ARPE-19 cells [3]; 2 ng/ml TNF-α): 9 fold | induction of IL-8 mRNA expression (ARPE-19 cells [3]; 2 ng/ml TNF-α): 8 fold | induction of IκBα mRNA expression (ARPE-19 cells [3]; 2 ng/ml TNF-α): 3 fold

CC/C=C\C/C=C\C/C=C\C/C=C\C/C=C\C/C=C\CCC(=O)O [docosahexaenoic acid]
CONC. (μM): lowest concentration required to maintain full cell viability against 7KCh (ARPE-19 cells [1]): 5 µM

CCCCC/C=C\C/C=C\CCCCCCCC(=O)O [linoleic acid]
CONC. (μM): lowest concentration required to maintain full cell viability against 7KCh (ARPE-19 cells [1]): 5 µM | effect on 7KCh-mediated mRNA induction (inflammatory response) (ARPE-19 cells [2]): either ineffective or enhanced

CCCCCCCC[C@@H]1C[C@@H]1CCCCCCCC(=O)O [dihydrosterculic acid, Dihydrosterculic acid]
increase of cell viability compared to 7KCh alone treatment (ARPE19 cells [4]): 20% | cell morphological changes compared to 7KCh alone (ARPE19 cells [5]): more cells compared to 7KCh alone | CONC. (μM): lowest concentration required to maintain full cell viability against 7KCh (ARPE-19 cells [1]): 10 µM | VEGF mRNA expression (ARPE-19 cells [2]; [10]): essentially ineffective | IL-6 mRNA expression (ARPE-19 cells [2]; [10]): somewhat effective | GRP78 mRNA expression (ARPE-19 cells [2]; [10]): somewhat effective | CHOP mRNA expression (ARPE-19 cells [2]; [10]): somewhat effective | increase of cell viability compared to 7KCh alone treatment (ARPE19 cells [6]): 20% | protection of cell confluency and morphology (images) (ARPE19 cells [7]; 0.5 μM co-treatment with 12 μM 7KCh): no effect | protection of cell confluency and morphology (images) (ARPE19 cells [7]; 1 μM co-treatment with 12 μM 7KCh): slight effect | protection of cell confluency and morphology (images) (ARPE19 cells [7]; 1 μM co-treatment with 12 μM 7KCh, listed as Dihydrosterculic acid): do not have such protection effect

CCCCCCCCCCCCCCCCCC(=O)O [stearic acid]
morphological effects on the cells (images) (ARPE-19 cells [1]; 1 μM + 12 μM 7KCh, 24 hr, FIG. 12C): no effect | protective effect against 7KCh-mediated cell death (ARPE-19 cells [1]; 12 μM 7KCh, 24 hr, 0.1-10 μM fatty acid): did not demonstrate any protective effect | antagonistic effect to 7KCh-mediated mRNA induction (ARPE-19 cells [2]; 1 μM + 8 μM 7KCh, FIGS. 14, 15): did not show any antagonistic effect | effect on 7KCh-mediated mRNA induction (inflammatory response) (ARPE-19 cells [2]): either ineffective or enhanced | effect of fatty acid alone on the mRNA expression of the cytokines (ARPE-19 cells [2]; 1 μM fatty acid alone, no 7KCh, FIGS. 14, 15): no effect | induction of VEGF mRNA (ARPE-19 cells [2]; 8 μM 7KCh alone or with 1 μM fatty acid, FIG. 14A): 8.8 fold | induction of IL-6 mRNA (ARPE-19 cells [2]; 8 μM 7KCh alone or with 1 μM fatty acid, FIG. 14C): 29 fold | effect on secreted VEGF, IL-6, IL-8 protein levels (ARPE-19 cells [8]): no measurable effect | effect on 7KCh-induced CHOP and GRP78 protein expression (ARPE-19 cells [9]): no effect | antagonist effect to the cytokine inductions by TNF-α (ARPE-19 cells [3]; 1 μM fatty acid + 2 ng/ml TNF-α): seemed to enhance
